In US7981914B2, “Tetrazole-substituted aryl amide derivatives and uses thereof” (Roche Palo Alto LLC, priority 2007, dated 2011):

Biological target: T1, human nicotinic alpha7 WT receptor (Homo sapiens, UniProt P36544)
T1 construct: expressed in transfected cells; host or cells: GH4C1 (rat pituitary-derived cell line), RPA clone #34.7
Assay: Nicotinic alpha 7 Modulation Assay (FLIPR)
Type: cell-based
Conditions: GH4C1 cells stably expressing human nicotinic alpha7 WT receptor, ACh 30 μM, positive control 1 μM PNU-120596
Method: Nicotinic alpha 7 Modulation Assay
Cell Culture Growth Media: F10 medium (Invitrogen), 2.5% Fetal Bovine Serum (FBS, Summit Biotechnology); 15% heat inactivated donor Horse Serum (Invitrogen), 250 μg/ml Hygromycin B (Invitrogen); and 100 nM Methyllicaconite (MLA, Sigma) are added to each new culture by 50-fold dilution of stock solution prepared in H2O at 5 μM.
GH4C1 cells (rat pituitary-derived cell line) stably expressing human nicotinic alpha7 WT receptor (RPA clone #34.7) are cultivated in cell culture growth media (described above) at 37 C in a humidified atmosphere containing 4% CO2. […]
The alpha 7 nAChR assay is a cell-based functional readout designed to determine the effect of test compounds to either directly activate nicotinic receptor channels and/or to modulate activation by the native agonist acetylcholine (ACh, Sigma). […]
Assay of test compound effect on activation of the alpha7 nicotinic receptor channel is done by measurement of cytosolic [Ca^2+] elevation as reported by increased FLUO-3 fluorescence using a two addition experimental design and FLIPR™ (Molecular Devices). Following a 30 second baseline recording, test compounds are added online (dilution scheme below) and cell response is recorded for an additional 5 minutes. After a second addition of ACh (30 μM, FAC), plates are read for an additional 4 minutes. […]

T1 sequence (P36544 23-502): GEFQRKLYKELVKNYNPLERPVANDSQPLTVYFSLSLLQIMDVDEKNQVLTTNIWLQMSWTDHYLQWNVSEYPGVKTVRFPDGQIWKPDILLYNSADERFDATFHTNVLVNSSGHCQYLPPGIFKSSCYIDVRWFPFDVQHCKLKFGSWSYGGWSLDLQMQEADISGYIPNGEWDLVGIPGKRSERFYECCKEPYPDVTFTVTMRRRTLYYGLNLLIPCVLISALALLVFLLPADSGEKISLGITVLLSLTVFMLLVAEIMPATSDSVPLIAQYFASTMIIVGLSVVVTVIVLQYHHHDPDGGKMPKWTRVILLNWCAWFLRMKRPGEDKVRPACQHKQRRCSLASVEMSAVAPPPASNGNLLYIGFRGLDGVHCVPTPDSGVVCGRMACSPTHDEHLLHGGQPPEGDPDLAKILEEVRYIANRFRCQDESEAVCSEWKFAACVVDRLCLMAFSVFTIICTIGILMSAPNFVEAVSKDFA

SMILES: COc1ccccc1-c1cc(C(=O)NCCc2ccc(S(N)(=O)=O)cc2)cc(-n2cnnn2)c1 [Compound 4, 2′-Methoxy-5-tetrazol-1-yl-biphenyl-3-carboxylic acid [2-(4-sulfamoyl-phenyl)-ethyl]-amide]
- positive allosteric modulation: 467.65
